Data on 14 compounds can be found in US11760775B2, “Steroids and protein-conjugates thereof” (Regeneron Pharmaceuticals, Inc., priority 2016, dated 2023).

Structures can show the parent of a compound that is named as a salt. Where two headings read alike, the source gives them in different places.

What is called IC50 is the midpoint of a concentration-inhibition curve. A low value points to higher potency.

Experiment [1] has as its target Glucocorticoid Receptor (GR) (Homo sapiens (Human), UniProt P04150). Nature of the experiment: LanthaScreen TR-FRET GR Competitive Binding Assay (cell free). For orientation: Time-resolved FRET reads energy transfer from a long-lived donor to a nearby acceptor.
Experiment [2] relates to GR activation in 293/PRLR/GRE-Luc cells (HEK293/9xUAS-Luc2P/pBind-GR/PRLR-HA high cells). Nature of the experiment: GR co-activator luciferase reporter cell based assay in 293/PRLR/GRE-Luc cells. Particulars: for Emax: HEK293, read-out: Activation (fold activation relative to Budesonide) in HEK293/9xUAS-Luc2P/pBind-GR/PRLR-HA high cells; for HEK293/9xUAS-Luc2P/pBind-GR/PRLR-HA high cells activation relative to Budesonide: fold activation vs Budesonide. On the set-up: species or system human.
Source text: Bioassays described herein were used to assess the efficacy of free steroids and anti-PRLR-ncADCs. In one example, the bioassay assessed the activity of steroids, after internalization of a site-specific anti-PRLR-GC steroid ADC into cells, to bind to pBIND-GR and subsequent luciferase reporter activation. […] Then such stable cell line was further transfected with a chimeric receptor consisting of a GR ligand binding domain fused to the yeast Gal4 DNA binding domain (pBind-GR, Promega Cat #E1581), and a Gal4 upstream activator sequence (9×Gal4UAS-Luc2P) that drives luciferase gene expression.
(§1) For this assay, 20,000 cells were seeded in 96-well plates in media containing DMEM supplemented with 10% FBS and pencillin/streptomycin (complete media) and grown overnight at 37° C. in 5% CO2. […] Luciferase activity was determined by addition of OneGlo™ reagent (Promega, Cat #E6130) and relative light units (RLUs) were measured on a Victor luminometer (Perkin Elmer). The EC50 values were determined from a four-parameter logistic equation over a 10 point response curve using GraphPad Prism.
as §1, with “One-Glo™” for “OneGlo™”, “10-point” for “10 point”, “Prism. […] Minimal activation in this assay is defined as less than 10% of the maximal activation measured with the free payload.” for “Prism.”

The mark [3] stands for this setting: Homo sapiens, 72 hours of incubation.
The mark [4] stands for this setting: Homo sapiens, HEK293, 72 hours of incubation, read-out: HEK293/9xUAS-Luc2P/pBind-GR/PRLR-HA high cells EC50.
Setting [5] is: 293/PRLR/GRE-Luc cells, 72 hours.
Where [6] appears, read: Homo sapiens, HEK293, read-out: HEK293/9xUAS-Luc2P/pBind-GR/PRLR-HA high cells EC50.

Chain of Glucocorticoid Receptor (GR) (P04150 524-758): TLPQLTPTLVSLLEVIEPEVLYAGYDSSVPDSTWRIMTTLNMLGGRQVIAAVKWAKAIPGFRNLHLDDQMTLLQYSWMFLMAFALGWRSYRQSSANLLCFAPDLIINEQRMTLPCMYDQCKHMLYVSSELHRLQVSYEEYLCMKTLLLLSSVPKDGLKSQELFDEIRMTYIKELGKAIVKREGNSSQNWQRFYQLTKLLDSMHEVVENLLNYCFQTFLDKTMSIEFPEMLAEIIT

On to `C[C@]12C=CC(=O)C=C1CC[C@@H]1[C@@H]2[C@@H](O)C[C@@]2(C)[C@H]1C[C@H]1O[C@@H](c3ccc(N)cc3)O[C@]12C(=O)CO` [7-1 R, (1S,2S,4R,6R,8S,9S,11S,12S,13R)-6-(4-Aminophenyl)-11-hydroxy-8-(2-hydroxyacetyl)-9,13-dimethyl-5,7-dioxapentacyclo[10.8.0.0^2,90.0^4,80.0^13,18]icosa-14,17-dien-16-one], for which the IC50 in experiment [1] was 10 to 100 nM. Besides, the Emax in experiment [2] (setting [3]) was over 75%. The EC50 in experiment [2] (setting [4]) is under 10 nM.
Consider `C[C@]12C=CC(=O)C=C1CC[C@@H]1[C@@H]2[C@@H](O)C[C@@]2(C)[C@H]1C[C@H]1O[C@H](c3ccc(N)cc3)O[C@]12C(=O)CO` [7-1 S, (1S,2S,4R,6S,8S,9S,11S,12S,13R)-6-(4 Aminophenyl)-11-hydroxy-8-(2-hydroxyacetyl)-9,13-dimethyl-5,7-dioxapentacyclo[10.8.0.0^2,90.0^4,80.0^13,18]icosa-14,17-dien-16-one], for which the IC50 in experiment [1] was under 10 nM. Further, the Emax in experiment [2] (setting [3]) was 20 to 75%. Further, in experiment [2] (setting [4]), the EC50 was over 100 nM.
`C[C@]12C=CC(=O)C=C1CC[C@@H]1[C@@H]2[C@@H](O)C[C@@]2(C)[C@H]1C[C@H]1OC(Cc3ccc(N)cc3)O[C@]12C(=O)CO` (stereo partly drawn) [7-2 R/S, (1S,2S,4R,8S,9S,11S,12S,13R)-6[(4-Aminophenyl)methyl]-11-hydroxy-8-(2-hydroxyacetyl)-9,13-dimethyl-5,7-dioxapentacyclo[10.8.0.0^2,90.0^4,80.0^13,18]icosa-14,17-dien-16-one] displayed a half-inhibitory concentration (IC50) in experiment [1] of under 10 nM. For the same compound, in experiment [2] (setting [5]), the “Fold Activation” value was “Full”. Besides, the EC50 in experiment [2] (Homo sapiens, HEK293, 72 h, read-out: EC50) was 10 to 100 nM; in experiment [2] (setting [4]) it was under 10 nM. Also, the Emax in experiment [2] (setting [3]) was under 20%.
On to `CC(C)C(=O)OCC(=O)[C@@]12O[C@H](c3ccc(N)cc3)O[C@@H]1C[C@H]1[C@@H]3CCC4=CC(=O)C=C[C@]4(C)[C@H]3[C@@H](O)C[C@@]12C` [8-1 R, 2[(1S,2S,4R,8S,9S,11S,12S,13R)-6-(4-Aminophenyl)-11-hydroxy-9,13-dimethyl-16-oxo-5,7-dioxapentacyclo[10.8.0.0^2,90.0^4,80.0^13,18]icosa-14,17-dien-8-yl]-2-oxoethyl 2-methylpropanoate], for which the “Activation (fold activation relative to Budesonide) in HEK293/9xUAS-Luc2P/pBind-GR/PRLR-HA high cells” value in experiment [2] (72 hours of incubation) is listed as “full activation”. In addition, the EC50 in experiment [2] (setting [4]) was 10 to 100 nM.
`CC(C)C(=O)OCC(=O)[C@@]12OC(Cc3ccc(N)cc3)O[C@@H]1C[C@H]1[C@@H]3CCC4=CC(=O)C=C[C@]4(C)[C@H]3[C@@H](O)C[C@@]12C` (stereo partly drawn) [8-2 R/S, 2[(1S,2S,4R,8S,9S,11S,12S,13R)-6[(4-Aminophenyl)methyl]-11-hydroxy-9,13-dimethyl-16-oxo-5,7-dioxapentacyclo[10.8.0.0^2,90.0^4,80.0^13,18]icosa-14,17-dien-8-yl]-2-oxoethyl 2-methylpropanoate]: the IC50 in experiment [1] is under 10 nM. Also, the Emax in experiment [2] (setting [3]) is under 20%. For the same compound, the EC50 in experiment [2] (setting [4]) is over 100 nM.
In turn, `CC(C)C(=O)OCC(=O)[C@@]12OC(CCN)O[C@@H]1C[C@H]1[C@@H]3CCC4=CC(=O)C=C[C@]4(C)[C@H]3[C@@H](O)C[C@@]12C` (stereo partly drawn) [8-3 R/S, 2[(1S,2S,4R,8S,9S,11S,12S,13R)-6-(2-Aminoethyl)-11-hydroxy-9,13-dimethyl-16-oxo-5,7-dioxapentacyclo[10.8.0.0^2,90.0^4,8. 0^13,18]icosa-14,17-dien-8-yl]-2-oxoethyl 2-methylpropanoate] had an IC50 in experiment [1] of under 10 nM. Moreover, the Emax in experiment [2] (setting [3]) was under 20%. Moreover, in experiment [2] (setting [4]), the EC50 was over 100 nM.
For the compound `CCCC1O[C@@H]2C[C@H]3[C@@H]4CCC5=CC(=O)C=C[C@]5(C)[C@H]4[C@@H](O)C[C@]3(C)[C@]2(C(=O)CN)O1` (stereo partly drawn) [11-1 R/S, (1S,2S,4R,8S,9S,11S,12S,13R)-8-(2-Aminoacetyl)-11-hydroxy-9,13-dimethyl-6-propyl-5,7-dioxapentacyclo[10.8.0.0^2,9. 0^4,80.0^13,18]icosa-14,17-dien-16-one], the IC50 in experiment [1] lay within 10 to 100 nM. In experiment [2] (setting [3]), the Emax was over 75%. Further, in experiment [2] (setting [4]), the EC50 is under 10 nM.
With `CCCC1O[C@@H]2C[C@H]3[C@@H]4CCC5=CC(=O)C=C[C@]5(C)[C@H]4[C@@H](O)C[C@]3(C)[C@]2(C(=O)CNC)O1` (stereo partly drawn) [11-2 R/S, (1S,2S,4R,8S,9S,11S,12S,13R)-11-hydroxy-9,13-dimethyl-8-[2-(methylamino)acetyl]-6-propyl-5,7-dioxapentacyclo[10.8.0.0^2,90.0^4,80.0^13,18]icosa-14,17-dien-16-one], the IC50 in experiment [1] is 10 to 100 nM. Also, the Emax in experiment [2] (setting [3]) was over 75%. Besides, in experiment [2] (setting [4]), the EC50 was over 100 nM.
For the compound `CCCC1O[C@@H]2C[C@H]3[C@@H]4C[C@H](F)C5=CC(=O)C=C[C@]5(C)[C@@]4(F)[C@@H](O)C[C@]3(C)[C@]2(C(=O)CNc2ccc(N)cc2)O1` (stereo partly drawn) [Compound 5-I, (1S,2S,4R,8S,9S,11S,12R,13S,19S)-8-{2-[(4-Aminophenyl)amino]acetyl}-12,19-difluoro-11-hydroxy-9,13-dimethyl-6-propyl-5,7-dioxapentacyclo[10.8.0.0^2,90.0^4,80.0^13,18]icosa-14,17-dien-16-one Trifluoroacetate], the EC50 in experiment [2] (setting [6]) was under 10 nM. Moreover, the “HEK293/9xUAS-Luc2P/pBind-GR/PRLR-HA high cells activation relative to Budesonide” value in experiment [2] was “Full”.
On to `CCCC1O[C@@H]2C[C@H]3[C@@H]4C[C@H](F)C5=CC(=O)C=C[C@]5(C)[C@@]4(F)[C@@H](O)C[C@]3(C)[C@]2(C(=O)COc2ccc(N)c(F)c2)O1` (stereo partly drawn) [Compound 6-III, (1S,2S,4R,8S,9S,11S,12R,13S,19S)-8-[2-(4-Amino-3-fluorophenoxy)acetyl]-12,19-difluoro-11-hydroxy-9,13-dimethyl-6-propyl-5,7-dioxapentacyclo[10.8.0.0^2,90.0^4,8.0^13,18]icosa-14,17-dien-16-one], for which, in experiment [2] (setting [6]), the EC50 was under 10 nM.
On to `C[C@]12C=CC(=O)C=C1CC[C@@H]1[C@@H]2[C@@H](O)C[C@@]2(C)[C@H]1C[C@H]1O[C@@H](c3ccc(N)cc3)O[C@]12C(=O)CO` [Compound 7-1R], for which the GRE-Luc activation result in experiment [2] (setting [5]) was “full GRE-Luc activation”. Also, the EC50 in experiment [2] (293/PRLR/GRE-Luc cells, 72 hours, read-out: EC50 of GRE-Luc activation) lay in the range of 10 to 100 nM.
For the compound `CC(=O)OCC(=O)[C@@]1(OC(C)=O)[C@@H](C)C[C@H]2[C@@H]3C[C@H](F)C4=CC(=O)C=C[C@]4(C)[C@@]3(F)[C@@H](O)C[C@@]21C` [Diflorasone, diflorasone, reference compound], the Emax in experiment [2] (setting [3]) is over 75%. In addition, the EC50 in experiment [2] (setting [4]) was under 10 nM.
Regarding `C[C@@H]1C[C@H]2[C@@H]3CCC4=CC(=O)C=C[C@]4(C)[C@@]3(F)[C@@H](O)C[C@]2(C)[C@@]1(O)C(=O)CO` [compound 1c, dexamethasone, reference compound], the EC50 in experiment [2] (293/PRLR/GRE-Luc cells, 72 hours, ADCs with or without cyclodextrin linkers, read-out: EC50) was determined as 8.4 nM. Moreover, the “Maximal Activation” value in experiment [2] (293/PRLR/GRE-Luc cells, 72 hours, relative to free payload) is “Full (Full activation in this assay is defined between 90 and 100% of the maximal activation measured with the free payload)”.
Take “(6S,8S,9S,10R,11S,13S,14S,17R)-17-(2-(4-Aminophenoxy)acetyl)-11,17-dihydroxy-6,10,13-trimethyl-6,7,8,9,10,11,12,13,14,15,16,17-dodecahydro-3H-cyclopenta[a]phenanthren-3-one [Compound 6-VI]”: the “HEK293/9xUAS-Luc2P/pBind-GR/PRLR-HA high cells activation relative to Budesonide” value in experiment [2] is listed as “Full”. Also, the EC50 in experiment [2] (read-out: HEK293/9xUAS-Luc2P/pBind-GR/PRLR-HA high cells EC50) was under 10 nM.
